# Results as given in US10995068B2, “Synthetic sphingolipid-like molecules, drugs, methods of their synthesis and methods of treatment” (The Regents of the University of California, priority 2015, dated 2021).
# System: K-RasG12D expressing cells
# Assay: Macropinosome fusion with lysosomes
# Assay type: cell-based
# Details: dextran
# Text: In cells with activated Ras, macropinocytosis might also confer resistance to nutrient transporter down-regulation. However, PI(3,5)P2 is also required for macropinosome degradation. […] Macropinosomes that fail to fuse with lysosomes would not be able to supply nutrients, such as amino acids. Thus, by disrupting PIKfyve localization, sphingolipid-like compounds limit access to lysosome-derived nutrients at the same time it down-regulates transporters for amino acids and glucose.
# Light Microscopy: Brightfield and epifluorescence microscopy were conducted using a Nikon TE2000-S fluorescence microscope; confocal microscopy was performed on a Zeiss LSM780 confocal microscope or Nikon Eclipse Ti spinning disk confocal microscope. […] Co-localization was determined using JACoP plugin in ImageJ software. Macropinocytosis was measured after 16 h incubation in serum-free DMEM. p53−/−; LSL-K-RasG12D MEFs before (LSL) or after (KRasG12D) introduction of Cre were serum starved for 16 h and then treated with macropinocytosis inhibitor 5-(N-ethyl-N-isopropyl) amiloride (EIPA, 75 μM) for 1 h or SH-BC-893 for 6 h. Oregon Green dextran (Life Technologies, cat #D7173) (1 mg/mL) and Lysotracker Red (Life Technologies, cat #L-7525) (1:2,000 dilution) were added for 30 min and live cells were evaluated on the spinning disc confocal microscope. […]
compound,measurement,value
"CCCCCCCCc1ccc([C@H]2CCN[C@@H]2CO)cc1.Cl [Compound 5, (2S,3R)-2-(hydroxymethyl)-3-(4-octylphenyl)Pyrrolidinium chloride]",macropinosome fusion with lysosomes,dramatically reduced macropinosome fusion with lysosomes
